{
  "source": "patent US8815847B2",
  "about": "“[1,2,4]thiadiazine 1,1-dioxide compounds for lowering serum uric acid” (Anadys Pharmaceuticals, Inc., priority 2011, dated 2014)",
  "data": [
    {"smiles": "CS(=O)(=O)Nc1ccc2c(c1)S(=O)(=O)N=C(C1=C(O)[C@@H]3C4CCC(CC4)[C@@H]3N(Cc3ccc(F)cc3)C1=O)N2", "values": [
      {"measurement": "melting point", "result": "203.8 to 205.7", "unit": "°C"}
    ]}
  ]
}
